According to ChEMBL document CHEMBL1201861, “Genomics of Drug Sensitity in Cancer screening data, Wellcome Trust Sanger Institute”:
Values joined by “and” are separate entries in the source; they are usually repeats but may differ in a detail not shown here. Equal values may be shown once.

Key:
Test in all cases: cells
ESS-1 = assay type: functional, cell-based, Homo sapiens;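 further: growth inhibition of human ESS-1 cells, read out by a cell viability assay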
Description: SANGER: Inhibition of human ESS-1 cell growth in a cell viability assay.

GR-ST = assay type: functional, cell-based; details: Homo sapiens
Description: SANGER: Inhibition of human GR-ST cell growth in a cell viability assay.

SH-4 = assay type: functional, cell-based, Homo sapiens;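 further: growth inhibition of SH-4 cells, read out with a cell viability assay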
Description: SANGER: Inhibition of human SH-4 cell growth in a cell viability assay.

COLO-792 = assay type: functional, cell-based, Homo sapiens
Description: SANGER: Inhibition of human COLO-792 cell growth in a cell viability assay.

HL-60 = assay type: functional, cell-based; details: Homo sapiens;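 further: growth inhibition of human HL-60 cells, read out with a cell viability assay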
Description: SANGER: Inhibition of human HL-60 cell growth in a cell viability assay.

SW1573 = assay type: functional, cell-based, Homo sapiens;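 further: growth inhibition of SW1573 cells, read out with a cell viability assay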
Description: SANGER: Inhibition of human SW1573 cell growth in a cell viability assay.

LU-139 = assay type: functional, cell-based; details: Homo sapiens
Description: SANGER: Inhibition of human LU-139 cell growth in a cell viability assay.

QIMR-WIL = assay type: functional, cell-based; details: Homo sapiens;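 further: growth inhibition of QIMR-WIL cells, read out with a cell viability assay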
Description: SANGER: Inhibition of human QIMR-WIL cell growth in a cell viability assay.

HOP-92 = assay type: functional, cell-based, Homo sapiens;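 further: cell viability readout, with IC50 reflecting inhibition of HOP-92 cell growth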
Description: SANGER: Inhibition of human HOP-92 cell growth in a cell viability assay.

T-24 = assay type: functional, cell-based, Homo sapiens;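 further: growth inhibition of T-24 cells, read out with a cell viability assay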
Description: SANGER: Inhibition of human T-24 cell growth in a cell viability assay.

SW982 = assay type: functional, cell-based; details: Homo sapiens;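 further: growth inhibition of SW982 cells, read out with a cell viability assay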
Description: SANGER: Inhibition of human SW982 cell growth in a cell viability assay.

NCI-H720 = assay type: functional, cell-based; details: Homo sapiens;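 further: growth inhibition of human NCI-H720 cells determined by a cell viability assay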
Description: SANGER: Inhibition of human NCI-H720 cell growth in a cell viability assay.

MKN-7 = assay type: functional, cell-based, Homo sapiens;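 further: growth inhibition of MKN-7 cells, read out with a cell viability assay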
Description: SANGER: Inhibition of human MKN7 cell growth in a cell viability assay.

MKN-1 = assay type: functional, cell-based, Homo sapiens;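 further: growth inhibition of human MKN1 cells, read out by a cell viability measurement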
Description: SANGER: Inhibition of human MKN1 cell growth in a cell viability assay.

HOS = assay type: functional, cell-based, Homo sapiens;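 further: growth inhibition of human HOS cells, read out with a cell viability assay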
Description: SANGER: Inhibition of human HOS cell growth in a cell viability assay.

SHP77 = assay type: functional, cell-based, Homo sapiens, SHP-77;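 further: growth inhibition of human SHP-77 cells measured by a cell viability assay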
Description: SANGER: Inhibition of human SHP-77 cell growth in a cell viability assay.

HCT-116 = assay type: functional, cell-based, Homo sapiens
Description: SANGER: Inhibition of human HCT-116 cell growth in a cell viability assay.

NB12 = assay type: functional, cell-based, Homo sapiens;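 further: growth inhibition of human NB12 cells, read out by a cell viability assay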
Description: SANGER: Inhibition of human NB12 cell growth in a cell viability assay.

NB6 = assay type: functional, cell-based, Homo sapiens;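 further: growth inhibition of NB6 cells, read out by a cell viability assay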
Description: SANGER: Inhibition of human NB6 cell growth in a cell viability assay.

GOTO = assay type: functional, cell-based, Homo sapiens;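 further: growth inhibition of GOTO cells, read out by a cell viability assay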
Description: SANGER: Inhibition of human GOTO cell growth in a cell viability assay.

NCI-H1155 = assay type: functional, cell-based; details: Homo sapiens;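 further: cell growth inhibition measured by a viability assay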
Description: SANGER: Inhibition of human NCI-H1155 cell growth in a cell viability assay.

NCI-H1755 = assay type: functional, cell-based, Homo sapiens;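 further: cell viability readout used to measure growth inhibition of NCI-H1755 cells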
Description: SANGER: Inhibition of human NCI-H1755 cell growth in a cell viability assay.

GB-1 = assay type: functional, cell-based, Homo sapiens;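 further: growth of GB-1 cells judged by a viability assay, IC50 marks the concentration inhibiting growth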
Description: SANGER: Inhibition of human GB-1 cell growth in a cell viability assay.

KP-4 = assay type: functional, cell-based, Homo sapiens; details: read-out: IC50;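 further: human KP-4 cells, with growth inhibition read out through a cell viability assay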
Description: SANGER: Inhibition of human KP-4 cell growth in a cell viability assay.

SK-HEP1 = assay type: functional, cell-based, Homo sapiens, SK-HEP-1;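 further: cell viability readout used to quantify reduction in proliferation of human SK-HEP-1 cells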
Description: SANGER: Inhibition of human SK-HEP-1 cell growth in a cell viability assay.

ES5 = assay type: functional, cell-based, Homo sapiens;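 further: growth inhibition of human ES5 cells, read out by a cell viability assay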
Description: SANGER: Inhibition of human ES5 cell growth in a cell viability assay.

SK-MEL-2 = assay type: functional, cell-based, Homo sapiens;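 further: growth inhibition of human SK-MEL-2 cells measured with a cell viability assay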
Description: SANGER: Inhibition of human SK-MEL-2 cell growth in a cell viability assay.

BCPAP = assay type: functional, cell-based, Homo sapiens;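 further: growth inhibition of BCPAP cells, read out in a cell viability assay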
Description: SANGER: Inhibition of human BCPAP cell growth in a cell viability assay.

TK-10 = assay type: functional, cell-based, Homo sapiens;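 further: growth inhibition of TK-10 cells, read out in a cell viability assay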
Description: SANGER: Inhibition of human TK10 cell growth in a cell viability assay.

NCI-H2122 = assay type: functional, cell-based, Homo sapiens;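 further: growth inhibition of the cells, read out with a cell viability assay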
Description: SANGER: Inhibition of human NCI-H2122 cell growth in a cell viability assay.

NCI-H2228 = assay type: functional, cell-based, Homo sapiens;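 further: growth inhibition of human NCI-H2228 cells, read out by a cell viability assay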
Description: SANGER: Inhibition of human NCI-H2228 cell growth in a cell viability assay.

HCC1954 = assay type: functional, cell-based, Homo sapiens;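 further: growth inhibition of human HCC1954 cells, read out with a cell viability assay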
Description: SANGER: Inhibition of human HCC1954 cell growth in a cell viability assay.

KINGS-1 = assay type: functional, cell-based, Homo sapiens;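 further: cell viability assay measuring suppression of KINGS-1 cell growth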
Description: SANGER: Inhibition of human KINGS-1 cell growth in a cell viability assay.

NCI-H441 = assay type: functional, cell-based; details: Homo sapiens;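 further: growth inhibition of NCI-H441 cells, read out with a cell viability assay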
Description: SANGER: Inhibition of human NCI-H441 cell growth in a cell viability assay.

HEL = assay type: functional, cell-based, Homo sapiens;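 further: growth inhibition of HEL cells, read out with a cell viability assay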
Description: SANGER: Inhibition of human HEL cell growth in a cell viability assay.

SK-PN-DW = assay type: functional, cell-based; details: Homo sapiens;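 further: growth inhibition measured with a viability assay on these cells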
Description: SANGER: Inhibition of human SK-PN-DW cell growth in a cell viability assay.

S-117 = assay type: functional, cell-based, Homo sapiens
Description: SANGER: Inhibition of human S-117 cell growth in a cell viability assay.

HCE-4 = assay type: functional, cell-based, Homo sapiens;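 further: cell viability assay measuring inhibition of growth in the human HCE-4 cell line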
Description: SANGER: Inhibition of human HCE-4 cell growth in a cell viability assay.

CTB-1 = assay type: functional, cell-based; details: Homo sapiens
Description: SANGER: Inhibition of human CTB-1 cell growth in a cell viability assay.

TE-11 = assay type: functional, cell-based, Homo sapiens;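 further: growth inhibition of human TE-11 cells, read out by a cell viability assay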
Description: SANGER: Inhibition of human TE-11 cell growth in a cell viability assay.

ES7 = assay type: functional, cell-based, Homo sapiens;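 further: growth inhibition of cultured human ES7 cells, read out as cell viability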
Description: SANGER: Inhibition of human ES7 cell growth in a cell viability assay.

NCI-H1792 = assay type: functional, cell-based, Homo sapiens;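 further: growth inhibition of human NCI-H1792 cells, read out as cell viability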
Description: SANGER: Inhibition of human NCI-H1792 cell growth in a cell viability assay.

NCI-H1648 = assay type: functional, cell-based, Homo sapiens;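 further: cell viability assay measuring inhibition of NCI-H1648 cell growth, from the Sanger screening data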
Description: SANGER: Inhibition of human NCI-H1648 cell growth in a cell viability assay.

KYSE-270 = assay type: functional, cell-based, Homo sapiens;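 further: cell growth inhibition measured with a viability assay in the human KYSE-270 line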
Description: SANGER: Inhibition of human KYSE-270 cell growth in a cell viability assay.

Calu-3 = assay type: functional, cell-based, Homo sapiens;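 further: growth inhibition of human Calu-3 cells, determined with a cell viability assay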
Description: SANGER: Inhibition of human Calu-3 cell growth in a cell viability assay.

ACN = assay type: functional, cell-based, Homo sapiens;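 further: growth inhibition of the human ACN cell line, read out via cell viability testing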
Description: SANGER: Inhibition of human ACN cell growth in a cell viability assay.

no-11 = assay type: functional, cell-based, Homo sapiens;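 further: growth inhibition of human NO-11 cells, read out with a cell viability assay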
Description: SANGER: Inhibition of human no-11 cell growth in a cell viability assay.

SNU-5 = assay type: functional, cell-based; details: Homo sapiens;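 further: cell viability readout used to measure growth inhibition in human NCI-SNU-5 cells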
Description: SANGER: Inhibition of human NCI-SNU-5 cell growth in a cell viability assay.

T47D = assay type: functional, cell-based, Homo sapiens;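 further: growth inhibition of human T47D cells, measured with a cell viability assay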
Description: SANGER: Inhibition of human T47D cell growth in a cell viability assay.

NCI-H2052 = assay type: functional, cell-based, Homo sapiens;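 further: growth inhibition of NCI-H2052 cells, read out with a cell viability assay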
Description: SANGER: Inhibition of human NCI-H2052 cell growth in a cell viability assay.

A388 = assay type: functional, cell-based, Homo sapiens;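 further: growth inhibition of human A388 cells, read out with a cell viability assay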
Description: SANGER: Inhibition of human A388 cell growth in a cell viability assay.

HMV-2 cell line = assay type: functional, cell-based, Homo sapiens;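 further: growth inhibition of HMV-II cells, read out with a cell viability assay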
Description: SANGER: Inhibition of human HMV-II cell growth in a cell viability assay.

Measured: IC50

COc1cc(F)c(F)c(Nc2ccc(I)cc2F)c1NS(=O)(=O)C1(CC(O)CO)CC1 (stereo not drawn)
0.0651 µM: ACN; Homo sapiens, ACN
4.9 µM: Calu-3; Homo sapiens, Calu-3
0.761 µM: COLO-792; Homo sapiens, COLO-792
0.436 µM: SW982
2.17 µM: NCI-H2122; Homo sapiens, NCI-H2122
0.0856 µM: SH-4; Homo sapiens, SH-4
0.683 µM: HOP-92; Homo sapiens, HOP-92
0.101 µM: SK-MEL-2; Homo sapiens, SK-MEL-2
2.45 µM: NCI-H1792; Homo sapiens, NCI-H1792
0.0324 µM: HL-60
2.05 µM: SK-HEP1; Homo sapiens, SK-HEP1
2.18 µM: BCPAP; Homo sapiens, BCPAP
> 5 µM: ESS-1; Homo sapiens, ESS-1 | GR-ST | SW1573; Homo sapiens, SW1573 | LU-139 | QIMR-WIL | T-24; Homo sapiens, T-24 | NCI-H720 | MKN-7; Homo sapiens, MKN-7 | MKN-1; Homo sapiens, MKN-1 | HOS; Homo sapiens, HOS | SHP77; Homo sapiens, SHP77 | NB12; Homo sapiens, NB12 | NB6; Homo sapiens, NB6 | GOTO; Homo sapiens, GOTO | NCI-H1155 | NCI-H1755; Homo sapiens, NCI-H1755 | KP-4; Homo sapiens, KP-4 | ES5; Homo sapiens, ES5 | NCI-H2228; Homo sapiens, NCI-H2228 | HCC1954; Homo sapiens, HCC1954 | NCI-H441 | HEL; Homo sapiens, HEL | SK-PN-DW | S-117; Homo sapiens, S-117 | HCE-4; Homo sapiens, HCE-4 | CTB-1 | TE-11; Homo sapiens, TE-11 | ES7; Homo sapiens, ES7 | NCI-H1648; Homo sapiens, NCI-H1648 | KYSE-270; Homo sapiens, KYSE-270 | no-11; Homo sapiens | T47D; Homo sapiens, T47D | NCI-H2052; Homo sapiens, NCI-H2052 | A388; Homo sapiens, A388
2.21 µM: TK-10; Homo sapiens, TK-10
2.69 µM: KINGS-1; Homo sapiens, KINGS-1
0.524 µM: HCT-116; Homo sapiens, HCT-116
3.6 µM: GB-1; Homo sapiens, GB-1
4.51 µM: SNU-5

Cc1cc([C@@H](C)Nc2ccccc2C(=O)O)c2nc(N3CCOCC3)cc(=O)n2c1 [AZD-6482]
3.31 µM: NCI-H1755; nci-h1755
0.813 µM and 3.26 µM: ES7; es7
> 5.12 µM: HMV-2 cell line; hmv-2 | ESS-1; Homo sapiens, ESS-1 | ESS-1; ess-1 | GR-ST | SH-4; sh-4 | COLO-792; colo-792 | HL-60 | SW1573; sw1573 | LU-139 | T-24; t-24 | NCI-H720 | MKN-7; mkn-7 | MKN-1; mkn-1 | HOS; hos | SHP77; shp-77 | HCT-116; hct-116 | NB6; nb6 | GOTO; Homo sapiens, GOTO | GOTO; goto | NCI-H1155 | GB-1; gb-1 | KP-4; kp-4 | SK-HEP1; Homo sapiens, SK-HEP1 | SK-HEP1; sk-hep-1 | ES5; es5 | SK-MEL-2; Homo sapiens, SK-MEL-2 | SK-MEL-2; sk-mel-2 | BCPAP; Homo sapiens, BCPAP | BCPAP; bcpap | TK-10; tk-10 | NCI-H2122; nci-h2122 | NCI-H2228; nci-h2228 | HCC1954; hcc1954 | KINGS-1; Homo sapiens, KINGS-1 | KINGS-1; kings-1 | NCI-H441 | HEL; hel | SK-PN-DW | S-117; s-117 | HCE-4; hce-4 | CTB-1 | TE-11; te-11 | NCI-H1792; nci-h1792 | NCI-H1648; Homo sapiens, NCI-H1648 | NCI-H1648; nci-h1648 | KYSE-270; kyse-270 | ACN; Homo sapiens, ACN | ACN; acn | no-11 | SNU-5 | A388; a388
3.97 µM: QIMR-WIL
> 5.12 µM and 4.58 µM: HOP-92; hop-92
3.44 µM and > 5.12 µM: Calu-3; calu-3
> 5.12 µM and 0.915 µM: NCI-H2052; nci-h2052
3.27 µM: NCI-H1755; Homo sapiens, NCI-H1755
0.533 µM: T47D; Homo sapiens, T47D
5.06 µM: HCC1954; Homo sapiens, HCC1954
0.938 µM: T47D; t47d
1.55 µM and > 5.12 µM: NB12; nb12

COc1ccc(-c2ccc3c(N4CCOC[C@@H]4C)nc(N4CCOC[C@@H]4C)nc3n2)cc1CO [AZD-8055]
0.274 µM: ES7; Homo sapiens, ES7
0.53 µM: GR-ST
0.275 µM: T47D; Homo sapiens, T47D
1.74 µM: GOTO; Homo sapiens, GOTO
1.94 µM: HEL; Homo sapiens, HEL
1.6 µM: SW1573; Homo sapiens, SW1573
0.604 µM: HL-60
1.36 µM: TK-10; Homo sapiens, TK-10
0.642 µM: SK-MEL-2; Homo sapiens, SK-MEL-2
1.27 µM: NCI-H2228; Homo sapiens, NCI-H2228
1.08 µM: SH-4; Homo sapiens, SH-4
> 2 µM: ESS-1; Homo sapiens, ESS-1 | COLO-792; Homo sapiens, COLO-792 | HOP-92; Homo sapiens, HOP-92 | T-24; Homo sapiens, T-24 | MKN-1; Homo sapiens, MKN-1 | SHP77; Homo sapiens, SHP77 | NB12; Homo sapiens, NB12 | NB6; Homo sapiens, NB6 | NCI-H1155 | GB-1; Homo sapiens, GB-1 | KP-4; Homo sapiens, KP-4 | SK-HEP1; Homo sapiens, SK-HEP1 | NCI-H2122; Homo sapiens, NCI-H2122 | HCC1954; Homo sapiens, HCC1954 | KINGS-1; Homo sapiens, KINGS-1 | NCI-H441 | S-117; Homo sapiens, S-117 | HCE-4; Homo sapiens, HCE-4 | TE-11; Homo sapiens, TE-11 | no-11; Homo sapiens | SNU-5 | A388; Homo sapiens, A388
1.86 µM: NCI-H2052; Homo sapiens, NCI-H2052
0.0233 µM: LU-139
0.272 µM: CTB-1
0.452 µM: QIMR-WIL
0.943 µM: ACN; Homo sapiens, ACN
1.14 µM: NCI-H1755; Homo sapiens, NCI-H1755
0.685 µM: SW982
1.76 µM: SK-PN-DW
0.0935 µM: ES5; Homo sapiens, ES5
1.65 µM: Calu-3; Homo sapiens, Calu-3
0.971 µM: NCI-H1792; Homo sapiens, NCI-H1792
1.22 µM: MKN-7; Homo sapiens, MKN-7
0.588 µM: BCPAP; Homo sapiens, BCPAP
0.572 µM: HOS; Homo sapiens, HOS
1.57 µM: KYSE-270; Homo sapiens, KYSE-270
0.0294 µM: NCI-H720
0.702 µM: NCI-H1648; Homo sapiens, NCI-H1648
1.43 µM: HCT-116; Homo sapiens, HCT-116

O=c1cc(-c2cccc3c2Sc2ccccc2S3)oc(N2CCOCC2)c1 [KU-55933]
> 10 µM: HMV-2 cell line; Homo sapiens, HMV-2 | ESS-1; Homo sapiens, ESS-1 | GR-ST | SH-4; Homo sapiens, SH-4 | COLO-792; Homo sapiens, COLO-792 | HL-60 | SW1573; Homo sapiens, SW1573 | QIMR-WIL | HOP-92; Homo sapiens, HOP-92 | T-24; Homo sapiens, T-24 | SW982 | MKN-7; Homo sapiens, MKN-7 | MKN-1; Homo sapiens, MKN-1 | HOS; Homo sapiens, HOS | SHP77; Homo sapiens, SHP77 | HCT-116; Homo sapiens, HCT-116 | NB12; Homo sapiens, NB12 | NB6; Homo sapiens, NB6 | GOTO; Homo sapiens, GOTO | NCI-H1155 | NCI-H1755; Homo sapiens, NCI-H1755 | GB-1; Homo sapiens, GB-1 | KP-4; Homo sapiens, KP-4 | SK-HEP1; Homo sapiens, SK-HEP1 | ES5; Homo sapiens, ES5 | SK-MEL-2; Homo sapiens, SK-MEL-2 | BCPAP; Homo sapiens, BCPAP | TK-10; Homo sapiens, TK-10 | NCI-H2122; Homo sapiens, NCI-H2122 | NCI-H2228; Homo sapiens, NCI-H2228 | HCC1954; Homo sapiens, HCC1954 | KINGS-1; Homo sapiens, KINGS-1 | NCI-H441 | HEL; Homo sapiens, HEL | SK-PN-DW | S-117; Homo sapiens, S-117 | HCE-4; Homo sapiens, HCE-4 | CTB-1 | TE-11; Homo sapiens, TE-11 | ES7; Homo sapiens, ES7 | NCI-H1792; Homo sapiens, NCI-H1792 | NCI-H1648; Homo sapiens, NCI-H1648 | KYSE-270; Homo sapiens, KYSE-270 | Calu-3; Homo sapiens, Calu-3 | ACN; Homo sapiens, ACN | no-11; Homo sapiens | T47D; Homo sapiens, T47D | NCI-H2052; Homo sapiens, NCI-H2052 | A388; Homo sapiens, A388
